Results from PMC4731763, “Naturally occurring proteinaceous nanoparticles in Coptidis Rhizoma extract act as concentration-dependent carriers that facilitate berberine absorption” (Scientific Reports, 2016).
Read-outs that look alike come from different tables or passages of the source.

Tests used:
P-gp = conditions: cited from earlier work
mice = conditions: mouse, in vivo
Experimental: The mice (n = 20 mice per group, 10 males and 10 females) were orally administered the test materials and the reactions of the mice were recorded for 7 days. Using this method, the acute oral toxicities of the following materials were tested at the dose volume of 0.2 mL/10 g body weight (dissolved in water) and compared: (1) the Coptidis Rhizoma extract (1 or 3 g/kg); (2) the supernatant of the Coptidis Rhizoma extract (3 g/kg) after centrifugation (300,000 g, 30 min, 4 °C); (3) pure berberine (206 or 618 mg/kg, equal to the dose of berberine in the 1 and 3 g/kg extracts, respectively); (4) alkaloid extract of Coptidis Rhizoma (1259 mg/kg, equal to the dose of berberine in the 3 g/kg extract).

[1] = Pharmacokinetics in mice: plasma berberine exposure after oral administration; type: in vivo; conditions: both sexes, Kun-Ming, mouse
Experimental: A Shimadzu Prominence UFLCXR series HPLC (Shimadzu, Japan) and a Thermo Scientific TSQ Quantum Ultra mass spectrometer (Thermo Scientific, Waltham, MA, USA) equipped with an electrospray ionization (ESI) source were used. The samples were precipitated with 3 volumes of acetonitrile. Carbamazepine was used as the internal standard. After centrifugation (24,000 g, 6 min, 4 °C), the supernatant was mixed with an equal volume of water and 10-μL samples were injected into the LC-MS/MS system. The samples were eluted through a Hypersil Gold (C18) analytical column (5 μm, 100 × 2.1 mm) with a gradient of the aqueous phase (0.08% v/v formic acid and 2 mM ammonium acetate) and the acetonitrile phase (0 min, 85:15; 7 min, 32:68; 7.01 min, 85:15; 10 min, 85:15) at a flow rate of 0.3 mL/min. The ESI source was set to positive ion mode. Data acquisition was performed in the multiple reaction monitoring mode of the selective mass transition for each compound. The transitions from the precursor ions to the protonated fragment product ions were monitored: m/z 336.15 → m/z 322.28 for berberine and m/z 237.00 → m/z 194.31 for carbamazepine. The linear dynamic range for berberine in the tested biological samples was 0.5 to 500 ng/mL. […] The accuracy, precision, recovery, and stability tests all met the requirements of quantitative determination in biological samples. […]

[2] = parameters: method as in PMID 20138204; conditions: cited from earlier work

## COc1cc([C@H]2Oc3cc(-c4cc(=O)c5c(O)cc(O)cc5o4)cc(OC)c3O[C@@H]2CO)ccc1O (racemic) [5′-methoxyhydnocarpin]
P-gp
  Effect on P-gp: inhibitory effects on P-gp

## COc1ccc2cc3[n+](cc2c1OC)CCc1cc2c(cc1-3)OCO2 [pure berberine, berberine]
mice; 206 mg/kg
  Acute oral toxicity (survival of mice): survived
mice; 618 mg/kg
  Acute oral toxicity (reaction or death of mice): did not show toxic reactions
[1]; 206 mg/kg pure berberine, read-out: Plasma berberine AUC0–24 h
  AUC(0-t): 722 ng·h/mL
[1]; 618 mg/kg pure berberine, read-out: Plasma berberine AUC0–4 h
  AUC(0-t): 22.1 ng·h/mL
[2]
  Toxicity in vivo after oral administration: weak toxicity
P-gp
  P-gp substrate status: P-gp substrate
